{"source": "ChEMBL document CHEMBL4364251", "about": "“Design, synthesis and biological evaluation of new quinoline derivatives as potential antitumor agents” (Eur J Med Chem, 2019)", "key": {"HCT-116 [1]": {"test_system": "HCT-116", "experiment": "Induction of apoptosis in human HCT116 cells assessed as late apoptotic cells at 8 uM incubated for 24 hrs in presence of pan-caspase inhibitor z-VAD-FMK by annexin-V-FITC/PI staining based FACS analysis (reference value: 6.04%)", "format": "functional"}, "HCT-116 [2]": {"test_system": "HCT-116", "experiment": "Induction of apoptosis in human HCT116 cells assessed as viable cells at 8 uM incubated for 24 hrs in presence of pan-caspase inhibitor z-VAD-FMK by annexin-V-FITC/PI staining based FACS analysis (reference value: 85.28%)", "format": "functional", "settings": "HCT-116, 24 h, read-out: Activity"}, "HCT-116 [3]": {"test_system": "HCT-116", "experiment": "Induction of apoptosis in human HCT116 cells assessed as necrotic cells at 4 uM incubated for 24 hrs in presence of pan-caspase inhibitor z-VAD-FMK by annexin-V-FITC/PI staining based FACS analysis (reference value: 0.6%)", "format": "functional"}, "HCT-116 [4]": {"test_system": "HCT-116", "experiment": "Induction of apoptosis in human HCT116 cells assessed as late apoptotic cells at 4 uM incubated for 24 hrs in presence of pan-caspase inhibitor z-VAD-FMK by annexin-V-FITC/PI staining based FACS analysis (reference value: 6.04%)", "format": "functional"}, "HCT-116 [5]": {"test_system": "HCT-116", "experiment": "Induction of apoptosis in human HCT116 cells assessed as viable cells at 4 uM incubated for 24 hrs in presence of pan-caspase inhibitor z-VAD-FMK by annexin-V-FITC/PI staining based FACS analysis (reference value: 85.28%)", "format": "functional", "settings": "HCT-116, 24 h, read-out: Activity"}, "HCT-116 [6]": {"test_system": "HCT-116", "experiment": "Induction of apoptosis in human HCT116 cells assessed as necrotic cells at 8 uM incubated for 24 hrs by annexin-V-FITC/PI staining based FACS analysis (reference value: 0.71 to 2.26%)", "format": "functional"}, "HCT-116 [7]": {"test_system": "HCT-116", "experiment": "Induction of apoptosis in human HCT116 cells assessed as necrotic cells at 4 uM incubated for 24 hrs by annexin-V-FITC/PI staining based FACS analysis (reference value: 0.71 to 2.26%)", "format": "functional"}, "HCT-116 [8]": {"test_system": "HCT-116", "experiment": "Induction of apoptosis in human HCT116 cells assessed as increase in cleaved PARP protein expression level at 4 to 8 uM incubated for 24 hrs in presence of pan-caspase inhibitor z-VAD-FMK by Western blot analysis", "format": "functional, cell-based"}, "RKO [9]": {"test_system": "RKO", "experiment": "Antiproliferative activity against human RKO cells incubated for 48 hrs by MTT assay", "format": "functional, cell-based"}, "A2780": {"test_system": "A2780", "experiment": "Antiproliferative activity against human A2780 cells incubated for 48 hrs by MTT assay", "format": "functional, cell-based", "settings": "A2780, 48 h"}, "HCT-116 [10]": {"test_system": "HCT-116", "experiment": "Inhibition of colony formation in human HCT116 cells incubated for 24 hrs followed by compound washout and subsequent incubation for 10 to 14 days by crystal violet staining based assay", "format": "functional, cell-based"}, "A549": {"test_system": "A549", "experiment": "Antiproliferative activity against human A549 cells incubated for 48 hrs by MTT assay", "format": "functional, cell-based", "settings": "A549, 48 h"}, "NCI-H1650": {"test_system": "NCI-H1650", "experiment": "Antiproliferative activity against human NCI-H1650 cells incubated for 48 hrs by MTT assay", "format": "functional, cell-based", "settings": "NCI-H1650, 48 h"}, "HCT-116 [11]": {"test_system": "HCT-116", "experiment": "Growth inhibition of human HCT116 cells incubated for 24 hrs by CCK-8 assay", "format": "functional, cell-based"}, "RKO [12]": {"test_system": "RKO", "experiment": "Inhibition of colony formation in human RKO cells incubated for 24 hrs followed by compound washout and subsequent incubation for 10 to 14 days by crystal violet staining based assay", "format": "functional, cell-based"}, "HCT-116 [13]": {"test_system": "HCT-116", "experiment": "Induction of morphological changes in human HCT116 cells assessed as reduction in cell number at 4 to 10 uM incubated for 24 hrs by phase-contrast microscopic method", "format": "functional, cell-based"}, "HCT-116 [14]": {"test_system": "HCT-116", "experiment": "Induction of apoptosis in human HCT116 cells assessed as early apoptotic cells at 4 uM incubated for 24 hrs by annexin-V-FITC/PI staining based FACS analysis (reference value: 1.77 to 3.38%)", "format": "functional"}, "HCT-116 [15]": {"test_system": "HCT-116", "experiment": "Induction of apoptosis in human HCT116 cells assessed as late apoptotic cells at 4 uM incubated for 24 hrs by annexin-V-FITC/PI staining based FACS analysis (reference value: 1.55 to 1.56%)", "format": "functional"}, "HCT-116 [16]": {"test_system": "HCT-116", "experiment": "Induction of apoptosis in human HCT116 cells assessed as late apoptotic cells incubated for 24 hrs by annexin-V-FITC/PI staining based FACS analysis", "format": "functional, cell-based"}, "HCT-116 [17]": {"test_system": "HCT-116", "experiment": "Induction of apoptosis in human HCT116 cells deficient in p53 assessed as increase in pro-caspase3 protein expression level at 4 to 8 uM incubated for 24 hrs by Western blot analysis", "format": "functional, cell-based"}, "HCT-116 [18]": {"test_system": "HCT-116", "experiment": "Induction of autophagy in human HCT116 cells assessed as increase in LC3B-2 protein expression level incubated for 24 hrs by Western blot analysis", "format": "functional, cell-based"}, "HCT-116 [19]": {"test_system": "HCT-116", "experiment": "Induction of autophagy in human HCT116 cells assessed as increase in LC3B-2 protein expression level at 6 uM by Western blot analysis", "format": "functional, cell-based", "settings": "TDE = time-dependent effect"}, "HCT-116 [20]": {"test_system": "HCT-116", "experiment": "Induction of autophagy in human HCT116 cells expressed with LC3B-EGFP-mCheery assessed as LC3 assembly on membrane of autophagosome incubated for 24 hrs by DAPI staining based confocal microscopic method", "format": "functional, cell-based"}, "HCT-116 [21]": {"test_system": "HCT-116", "experiment": "Induction of autophagy in human HCT116 cells assessed as decrease in ATG5 protein expression level incubated for 24 hrs by Western blot analysis", "format": "functional, cell-based"}, "HCT-116 [22]": {"test_system": "HCT-116", "experiment": "Induction of autophagy in human HCT116 cells assessed as decrease in ATG7 protein expression level incubated for 24 hrs by Western blot analysis", "format": "functional, cell-based"}, "HCT-116 [23]": {"test_system": "HCT-116", "experiment": "Antiproliferative activity against human HCT116 cells expressing ATG5(-/-) assessed as cell viability incubated for 24 hrs by CCK8 assay", "format": "functional, cell-based"}, "HCT-116 [24]": {"test_system": "HCT-116", "experiment": "Antiproliferative activity against human HCT116 expressing p53 (-/-) at 1 to 16 uM assessed as decrease cell viability incubated for 24 hrs by CCK-8 assay", "format": "functional, cell-based"}, "HCT-116 [25]": {"test_system": "HCT-116", "experiment": "Induction of autophagy in human HCT116 cells deficient in ATG5 assessed as increase in LC3B-2 protein expression level at 4 to 8 uM by Western blot analysis", "format": "functional, cell-based"}, "HCT-116 [26]": {"test_system": "HCT-116", "experiment": "Induction of apoptosis in human HCT116 cells deficient in ATG7 assessed as viable cells at 8 uM incubated for 24 hrs by annexin-V-FITC/PI staining based FACS analysis (reference value: 85.27%)", "format": "functional", "settings": "HCT-116, 24 h, read-out: Activity"}, "HCT-116 [27]": {"test_system": "HCT-116", "experiment": "Induction of apoptosis in human HCT116 cells deficient in ATG7 assessed as necrotic cells at 8 uM incubated for 24 hrs by annexin-V-FITC/PI staining based FACS analysis (reference value: 5.58%)", "format": "functional"}, "Mus musculus": {"test_system": "Mus musculus", "experiment": "Antitumour activity against mouse […] cells implanted in BALB/c mouse assessed as decrease in tumour volume at 80 mg/kg administered once every three days for 21 days post tumour implantation and measured at day 13 by caliper method", "format": "functional, organism-based"}, "[28]": {"experiment": "Antitumour activity against mouse […] cells implanted in BALB/c mouse assessed inhibition in tumour growth at 80 mg/kg administered once every three days for 21 days post tumour implantation relative to control", "format": "functional", "settings": "read-out: TGI"}, "[29]": {"experiment": "Toxicity in BALB/c mouse xenografted with mouse […] cells at 80 mg/kg administrated once every three days for 21 days", "format": "organism-based", "settings": "in vivo, 504 h"}, "HCT-116 [30]": {"test_system": "HCT-116", "experiment": "Growth inhibition of human HCT116 cells at 1 uM by CCK-8 assay", "format": "functional, cell-based", "settings": "TDE = time-dependent effect"}, "RKO [31]": {"test_system": "RKO", "experiment": "Growth inhibition of human RKO cells at 1 uM by CCK-8 assay", "format": "functional, cell-based", "settings": "TDE = time-dependent effect"}}, "note": "Calls of active or inactive are those of the source. No cut-off for these calls is given here."}
{"smiles": "COc1cccc(Nc2ccnc3cc(OCCCc4ccccc4)ccc23)c1", "values": [{"measurement": "Activity", "setting": "HCT-116 [1]", "result": 16, "unit": "%"}, {"measurement": "viability at 8 µM", "setting": "HCT-116 [2]", "result": 62.9, "unit": "%"}, {"measurement": "Activity", "setting": "HCT-116 [3]", "result": 1.3, "unit": "%"}, {"measurement": "Activity", "setting": "HCT-116 [4]", "result": 8.17, "unit": "%"}, {"measurement": "viability at 4 µM", "setting": "HCT-116 [5]", "result": 75.1, "unit": "%"}, {"measurement": "Activity", "setting": "HCT-116 [6]", "result": "2.19 - 5.82%"}, {"measurement": "Activity", "setting": "HCT-116 [7]", "result": 0.95, "unit": "%"}, {"measurement": "Activity", "setting": "HCT-116 [8]", "result": "Active"}, {"measurement": "IC50", "setting": "RKO [9]", "result": 3.67, "unit": "µM"}, {"measurement": "IC50", "setting": "A2780", "result": 3.46, "unit": "µM"}, {"measurement": "inhibition", "setting": "HCT-116 [10]", "result": "Dose-dependent effect"}, {"measurement": "IC50", "setting": "A549", "result": 8.22, "unit": "µM"}, {"measurement": "IC50", "setting": "NCI-H1650", "result": 6.3, "unit": "µM"}, {"measurement": "growth inhibition (GI)", "setting": "HCT-116 [11]", "result": "Dose-dependent effect"}, {"measurement": "inhibition", "setting": "RKO [12]", "result": "Dose-dependent effect"}, {"measurement": "Activity", "setting": "HCT-116 [13]", "result": "Active"}, {"measurement": "Activity", "setting": "HCT-116 [14]", "result": 11.97, "unit": "%"}, {"measurement": "Activity", "setting": "HCT-116 [15]", "result": 11.64, "unit": "%"}, {"measurement": "Activity", "setting": "HCT-116 [16]", "result": "Dose-dependent effect"}, {"measurement": "Activity", "setting": "HCT-116 [17]", "result": "Active"}, {"measurement": "Activity", "setting": "HCT-116 [18]", "result": "Dose-dependent effect"}, {"measurement": "Activity", "setting": "HCT-116 [19]", "result": "Tde"}, {"measurement": "Activity", "setting": "HCT-116 [20]", "result": "Dose-dependent effect"}, {"measurement": "Activity", "setting": "HCT-116 [21]", "result": "Dose-dependent effect"}, {"measurement": "Activity", "setting": "HCT-116 [22]", "result": "Dose-dependent effect"}, {"measurement": "Activity", "setting": "HCT-116 [23]", "result": "inactive"}, {"measurement": "Activity", "setting": "HCT-116 [24]", "result": "Active"}, {"measurement": "Activity", "setting": "HCT-116 [25]", "result": "inactive"}, {"measurement": "viability at 8 µM", "setting": "HCT-116 [26]", "result": 76.7, "unit": "%"}, {"measurement": "Activity", "setting": "HCT-116 [27]", "result": 7.04, "unit": "%"}, {"measurement": "Activity", "setting": "Mus musculus", "result": "Active"}, {"measurement": "inhibition in vivo at 80 mg/kg", "setting": "[28]", "result": 82.1, "unit": "%"}, {"measurement": "Activity", "setting": "[29]", "result": "Non-Toxic"}, {"measurement": "growth inhibition (GI)", "setting": "HCT-116 [30]", "result": "Tde"}, {"measurement": "growth inhibition (GI)", "setting": "RKO [31]", "result": "Tde"}]}
